Data: patent publication US12103915B2, “TEAD inhibitors and methods of uses thereof” (Insilico Medicine IP Limited, priority 2022, dated 2024)
Where two headings read alike, the source gives them in different places.

Tests used:
NCI-H226 cells = test: Cell growth assay (CellTiter-Glo); format: cell-based, human; conditions: 7 days treatment, CellTiter-Glo luminescence, read-out: H226 CTG IC50
Experimental: Example A: Cell Growth Assay
CellTiter-Glo reagent (CTG reagent, Promega, G7573).
[…] Also seeding an extra plate as Day 0 control measurement. The microplates were incubated at 37° C., 5% CO2 overnight.
Compounds were 3-fold serial diluted in DMSO and final top-concentration was […], 10 points. 0.3% DMSO as vehicle control. In addition, […] of CTG reagent was added into the extra plate and incubated at room temperature for 30 minutes and detected luminescence signals as Day 0 control by using EnVision (PerkinElmer, 2104 Mutilabel Reader).
Incubated other compounds treated plates at 37° C. for another 7 days and […] of CTG reagent was added into the plates and incubated at room temperature for 30 minutes and detected luminescence signals.
Day 0 luminescence signals were used as negative control or baseline. • Signalday0=average luminescence signals of Day 0 control cells. • Signalblank control=average luminescence signals of blank control. • SignalDMSO vehicle control=average luminescence signals of Day 7 DMSO vehicle control cells. • Signalcpds treatment=luminescence signals of Day 7 compounds treatment cells. Inhibition %=1−(Signalcpds treatment−Signalblank control)/(SignalDMSO vehicle control−Signalblank control)*100.
(Inhibitory concentration 50% (IC50) and maximum inhibition % were calculated using dose response curves.

TEAD1 = TEAD1 (Homo sapiens, UniProt P28347); test: Thermal shift assay TEAD1; format: binding
Experimental: (§1) Example B: Thermal Shift Assay
(§2) 1) Prepare a fresh dilution of Protein Thermal Shift™ Dye (Applied Biosystems, 1000×) to 8× by […].
(§3) 2) To ensure the same DMSO concentration, the compounds were diluted as follows: Prepare 10 mM stock solution of compounds;
(§4) The final DMSO concentration was 0.1%
(§5) 10 μM: Diluting stock solution to 100 μM by using PBS.
(§6) 1 μM: Diluting stock solution to 1 mM by using DMSO, then dilute to 10 μM by using PBS.
(§7) TEAD1: the stock concentration was 2.9 mg/ml; the final concentration was 0.2 mg/ml. TEAD2: the stock concentration was 1.8 mg/ml; the final concentration was 0.08 mg/ml.
(§8) 4) Place the appropriate reaction plate or tubes on ice, then prepare the protein melt reactions:
(§9) 5) Pipet each reaction up and down 10 times to mix well.
(§10) 6) Seal the plate with MicroAmp™ Optical Adhesive Film, spin it at 1000 rpm for 1 minute.
(§11) 7) Set up and run on the qPCR instrument.
(§12) Using thermal Shift™ Software v1.3 to analysis.

TEAD2 = TEAD2 (Homo sapiens, UniProt Q15562); test: Thermal shift assay TEAD2; format: binding
Experimental: as §1, §2, §3, §4, §5, §6, §7, §8, §9, §10, §11, §12

TEAD3 = TEAD3 (Homo sapiens, UniProt Q99594); test: Thermal shift assay TEAD3; format: binding
Experimental: as §1, §2, §3, §4, §5, §6
TEAD3: the stock concentration was 2.4 mg/ml; the final concentration was 0.1 mg/ml.
as §8, §9, §10, §11, §12

TEAD4 = TEAD4 (Homo sapiens, UniProt Q15561); test: Thermal shift assay TEAD4; format: binding
Experimental: as §1, §2, §3, §4, §5, §6
TEAD4: the stock concentration was 2.3 mg/ml; the final concentration was 0.1 mg/ml.
as §8, §9, §10, §11, §12

TEAD4, sequence (Q15561 whole entry, species assumed): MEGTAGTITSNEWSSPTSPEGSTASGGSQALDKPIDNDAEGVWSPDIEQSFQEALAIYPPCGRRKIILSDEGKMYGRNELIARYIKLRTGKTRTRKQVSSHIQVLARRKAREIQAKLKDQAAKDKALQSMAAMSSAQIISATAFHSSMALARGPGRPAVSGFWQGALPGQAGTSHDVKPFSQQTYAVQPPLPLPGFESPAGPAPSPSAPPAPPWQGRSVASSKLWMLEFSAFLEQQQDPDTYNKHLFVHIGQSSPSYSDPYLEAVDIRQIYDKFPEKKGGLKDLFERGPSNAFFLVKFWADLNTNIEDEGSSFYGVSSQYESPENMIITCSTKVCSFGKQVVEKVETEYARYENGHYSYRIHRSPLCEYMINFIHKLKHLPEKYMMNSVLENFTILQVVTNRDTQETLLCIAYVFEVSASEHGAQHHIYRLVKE
TEAD1, sequence (P28347 whole entry, species assumed): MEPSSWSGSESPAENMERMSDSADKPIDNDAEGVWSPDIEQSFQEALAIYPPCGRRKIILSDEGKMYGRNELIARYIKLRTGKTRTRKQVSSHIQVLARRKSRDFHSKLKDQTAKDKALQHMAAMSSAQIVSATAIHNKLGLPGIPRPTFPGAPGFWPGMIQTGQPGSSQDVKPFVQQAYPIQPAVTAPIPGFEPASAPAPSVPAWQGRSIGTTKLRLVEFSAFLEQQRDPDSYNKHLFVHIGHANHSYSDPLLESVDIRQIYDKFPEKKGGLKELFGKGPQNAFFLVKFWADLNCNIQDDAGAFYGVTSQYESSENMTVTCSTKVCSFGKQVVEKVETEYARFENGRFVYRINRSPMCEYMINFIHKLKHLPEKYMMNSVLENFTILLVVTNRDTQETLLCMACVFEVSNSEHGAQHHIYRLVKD
TEAD3, sequence (Q99594 whole entry, species assumed): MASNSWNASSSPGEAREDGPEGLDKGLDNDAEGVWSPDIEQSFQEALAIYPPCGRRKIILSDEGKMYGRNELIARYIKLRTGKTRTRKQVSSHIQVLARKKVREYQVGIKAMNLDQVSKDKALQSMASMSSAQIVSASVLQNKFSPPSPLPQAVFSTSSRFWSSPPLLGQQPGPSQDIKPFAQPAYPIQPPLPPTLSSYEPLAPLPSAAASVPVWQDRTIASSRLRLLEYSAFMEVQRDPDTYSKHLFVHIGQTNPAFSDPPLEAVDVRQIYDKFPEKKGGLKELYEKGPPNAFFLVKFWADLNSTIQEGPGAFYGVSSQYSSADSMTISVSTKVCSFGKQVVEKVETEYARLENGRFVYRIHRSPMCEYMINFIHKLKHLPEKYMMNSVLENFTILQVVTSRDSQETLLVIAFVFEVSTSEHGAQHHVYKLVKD
TEAD2, sequence (Q15562 whole entry, species assumed): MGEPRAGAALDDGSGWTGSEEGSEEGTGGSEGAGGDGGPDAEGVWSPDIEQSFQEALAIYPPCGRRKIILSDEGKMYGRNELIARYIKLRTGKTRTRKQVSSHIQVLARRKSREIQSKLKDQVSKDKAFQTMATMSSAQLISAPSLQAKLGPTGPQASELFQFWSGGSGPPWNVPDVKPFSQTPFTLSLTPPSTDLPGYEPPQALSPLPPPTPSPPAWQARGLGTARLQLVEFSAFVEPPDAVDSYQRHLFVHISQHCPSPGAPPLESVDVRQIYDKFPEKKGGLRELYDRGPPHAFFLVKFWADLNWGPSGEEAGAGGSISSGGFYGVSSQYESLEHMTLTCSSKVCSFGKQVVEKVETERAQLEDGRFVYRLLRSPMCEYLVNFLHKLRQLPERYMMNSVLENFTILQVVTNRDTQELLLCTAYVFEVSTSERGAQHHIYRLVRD

Compound | IC50 (NCI-H226 cells; Homo sapiens, NCI-H226, 168 h) [nM] | TEAD1 ΔTm (TEAD1) [°C] | TEAD2 ΔTm (TEAD2) [°C] | TEAD3 ΔTm (TEAD3) [°C] | TEAD4 ΔTm (TEAD4) [°C] | IC50 (NCI-H226 cells) [nM]
O=C(O)[C@@H]1CC1c1cc(-c2ccc(C(F)(F)F)cc2)cc2cn[nH]c12 (mixture of isomers) [Example 1] | 1000 to 30000 | – | – | – | – | –
Cn1ncc2cc(-c3ccc(C(F)(F)F)cc3)cc(C3C[C@H]3C(=O)O)c21 (mixture of isomers) [Example 3] | 1000 to 30000 | – | – | – | – | –
O=C(O)[C@@H]1CC1c1cc(-c2ccc(C(F)(F)F)cc2)cc2cn(-c3cccnc3)nc12 (mixture of isomers) [Example 4] | 1000 to 30000 | 5 | 1.6 | 1.1 | 4.2 | –
O=C(O)[C@@H]1CC1c1cc(-c2ccc(C(F)(F)F)cc2)cc2[nH]ncc12 (mixture of isomers) [Example 5] | 1000 to 30000 | – | – | – | – | –
Cn1cc2c(C3C[C@H]3C(=O)O)cc(-c3ccc(C(F)(F)F)cc3)cc2n1 (mixture of isomers) [Example 6] | 100 to 500 | – | – | – | – | –
Cn1ncc2c(C3C[C@H]3C(=O)O)cc(-c3ccc(C(F)(F)F)cc3)cc21 (mixture of isomers) [Example 7] | – | 5.7 | 5.7 | 2 | 7.2 | 100 to 500
Cn1ncc2c(C3C[C@H]3C(=O)O)cc(-c3ccc(C(F)(F)F)cc3)cc21 (mixture of isomers) [Example 8] | – | – | – | – | – | 1000 to 30000
O=C(O)[C@@H]1CC1c1cc(-c2ccc(C(F)(F)F)cc2)cc2c1cnn2C(F)F (mixture of isomers) [Example 9] | 100 to 500 | 5.8 | 4.1 | 1.2 | 5.6 | –
Cn1ncc2c(C3C[C@H]3C(=O)O)cc(-c3ccc(OC(F)(F)F)cc3)cc21 (mixture of isomers) [Example 10] | 100 to 500 | 6 | 7.7 | 2 | 7.3 | –
Cn1cc2cc(-c3ccc(OC(F)(F)F)cc3)cc(C3C[C@H]3C(=O)O)c2n1 (mixture of isomers) [Example 12] | < 100 | 7.7 | 9.4 | 2.3 | 11.5 | –
O=C(O)[C@@H]1CC1c1cc(-c2ccc(C(F)(F)F)cc2)cc2cccnc12 (mixture of isomers) [Example 13] | < 100 | 7.7 | 6.6 | 1.8 | 8.3 | –
O=C(O)[C@@H]1CC1c1cc(-c2ccc(C(F)(F)F)cc2)cc2scnc12 (mixture of isomers) [Example 14] | 1000 to 30000 | 0.4 | 0.3 | 0 | 0.2 | –
CN1Cc2cc(-c3ccc(C(F)(F)F)cc3)cc(C3C[C@H]3C(=O)O)c2C1=O (mixture of isomers) [Example 15] | 100 to 500 | 5 | 5.1 | 1.2 | 3.7 | –
Cn1ncc2c(C3C[C@H]3C(=O)O)cc(OCc3ccc(C(F)(F)F)cc3)cc21 (mixture of isomers) [Example 19] | 1000 to 30000 | 1.9 | 3.4 | 0.9 | 1.8 | –
O=C(O)[C@@H]1CC1c1cn(-c2ccc(C(F)(F)F)cc2)c2cccnc12 (mixture of isomers) [Example 20] | 100 to 500 | 3.8 | 6.8 | 3.2 | 5.9 | –
Cc1ccc2c(c1)c(C1C[C@H]1C(=O)O)cn2-c1ccc(C(F)(F)F)cc1 (mixture of isomers) [Example 21] | < 100 | 11 | 6.7 | 5.2 | 9.3 | –
CNC(=O)[C@@H]1CC1c1cc(-c2ccc(C(F)(F)F)cc2)cc2c1=NC(C)N=2 (mixture of isomers) [Example 22] | < 100 | 4.5 | 5.5 | 1.1 | 5.7 | –

Compound | IC50 (NCI-H226 cells; Homo sapiens, NCI-H226, 168 h) [nM] | TEAD1 ΔTm (TEAD1) [°C] | TEAD2 ΔTm (TEAD2) [°C] | TEAD3 ΔTm (TEAD3) [°C] | TEAD4 ΔTm (TEAD4) [°C] | IC50 (NCI-H226 cells) [nM]
CCNC(=O)[C@@H]1CC1c1cc(-c2ccc(C(F)(F)F)cc2)cc2c1=NC(C)N=2 (mixture of isomers) [Example 23] | 100 to 500 | 4.7 | 3.5 | 0.7 | 6.5 | –
Cn1ncc2c(C3C[C@H]3C(N)=O)cc(-c3ccc(C(F)(F)F)cc3)cc21 (mixture of isomers) [Example 25] | < 100 | 5.4 | 6.9 | 0.7 | 6.6 | –
CN(C)C(=O)[C@@H]1CC1c1cc(-c2ccc(C(F)(F)F)cc2)cc2c1cnn2C (mixture of isomers) [Example 26] | 100 to 500 | 1.7 | 1.9 | 0.1 | 1.7 | –
CC(C)NC(=O)[C@@H]1C[C@H]1c1cc(-c2ccc(C(F)(F)F)cc2)cc2c1cnn2C (racemic) [Example 27] | 100 to 500 | 0.6 | 0.5 | 0.3 | 0.6 | –
CC(NC(=O)[C@@H]1C[C@H]1c1cc(-c2ccc(C(F)(F)F)cc2)cc2c1cnn2C)c1ccccn1 (mixture of isomers) [Example 28] | 100 to 500 | 3.7 | 0.5 | 0.5 | 2.4 | –
Cn1ncc2c([C@@H]3C[C@H]3C(=O)NCCO)cc(-c3ccc(C(F)(F)F)cc3)cc21 (racemic) [Example 29] | 500 to 1000 | – | – | – | – | –
COCCNC(=O)[C@@H]1C[C@H]1c1cc(-c2ccc(C(F)(F)F)cc2)cc2c1cnn2C (racemic) [Example 30] | 100 to 500 | 1.6 | 0.8 | 0.1 | 0.9 | –
Cn1ncc2c([C@@H]3C[C@H]3C(=O)N3CC(O)C3)cc(-c3ccc(C(F)(F)F)cc3)cc21 (racemic) [Example 31] | 100 to 500 | 3 | 2.7 | 0 | 2.8 | –
CNC(=O)[C@@H]1C[C@H]1c1cc(-c2ccc(C(F)(F)F)cc2)cc2c1cnn2C(F)F (racemic) [Example 32] | 100 to 500 | 2.1 | 0.9 | 0.2 | 1.3 | –
CNC(=O)[C@@H]1CC1c1cc(-c2ccc(OC(F)(F)F)cc2)cc2cn(C)nc12 (mixture of isomers) [Example 33] | < 100 | 4 | 6.7 | 0.6 | 6.5 | –
CNC(=O)[C@@H]1CC1c1cc(Oc2ccc(C(F)(F)F)cc2)cc2cn(C)nc12 (mixture of isomers) [Example 34] | < 100 | 8.5 | 12.7 | 6.6 | 10.3 | –
Cn1ncc2c(C3C[C@H]3C(N)=O)cc(Oc3ccc(C(F)(F)F)cc3)cc21 (mixture of isomers) [Example 35] | < 100 | 5.4 | 11.2 | 5.4 | 6.1 | –
CNC(=O)[C@@H]1CC1c1cc(Oc2ccc(C(F)(F)F)cc2)cc2c1cnn2C (mixture of isomers) [Example 36] | < 100 | 6.8 | 12.9 | 4.6 | 4.3 | –
Cn1cc2cc(Oc3ccc(C(F)(F)F)cc3)cc([C@@H]3C[C@H]3C(=O)N3CC(O)C3)c2n1 (single isomer, unassigned) [Example 58a] | 1000 to 30000 | – | – | – | – | –
C[C@H](C#N)NC(=O)[C@@H]1C[C@H]1c1cc(Oc2ccc(C(F)(F)F)cc2)cc2cn(C)nc12 (single isomer, unassigned) [Example 68] | < 100 | – | – | – | – | –
Cc1cn2cc(Oc3ccc(C(F)(F)F)cc3)cc(C3C[C@H]3C(=O)N3CC(O)C3)c2n1 (single isomer, unassigned) [Example 85a] | 1000 to 30000 | – | – | – | – | –
C=C(CS(=O)(=O)NC)c1cc(-c2ccc(C(F)(F)F)cc2)cc2c1cnn2C [Example 43] | 1000 to 30000 | – | – | – | – | –
